Literature values as cited in patent US20210319872A1, “DRUG AND DEVICE COMBINATION PRODUCTS WITH IMPROVED SAFETY AND EFFICACY PROFILES” (priority 2016, published 2021).
Like-named read-outs stand apart in the source and are kept apart here.

For `CNC(=O)c1cc(Oc2ccc(NC(=O)Nc3ccc(Cl)c(C(F)(F)F)c3)cc2)ccn1` [Nexavar], the Abdominal pain (hepatocellular carcinoma) is given as 31%, the Acral erythema (hepatocellular carcinoma) is given as “Dermatologic: Acral erythema (hepatocellular carcinoma, 21%;” and the Alopecia (hepatocellular carcinoma) is given as 14%. For the same molecule, the Hypoalbuminemia (hepatocellular carcinoma) was 59%, the Hypocalcemia (hepatocellular carcinoma) was 27% and the Lymphocytopenia (hepatocellular carcinoma) was “hepatocellular carcinoma, 47%), Thrombocytopenia (renal cell”. The Thrombocytopenia (hepatocellular carcinoma) was 46%, the Weight decreased (hepatocellular carcinoma) was “decreased (hepatocellular carcinoma, 30%; renal cell carcinoma,” and the Congestive heart failure (in vivo) was “Cardiovascular: Congestive heart failure (1.9%), Hypertension,”. The Hepatitis (in vivo) was less than 0.1%, the “Hypertension, All grades” value (in vivo) was “Cardiovascular: Hypertension, All grades (19.1%)” and the “Hypertension, Grade 3 or 4” value (in vivo) was 4.3%. For the same molecule, the Infectious disease (in vivo) was “Immunologic: Infectious disease (10% or greater)”, the Pain (in vivo) was no less than 10% and the “Prolonged QT interval” value (in vivo) was “(Less than 0.1%)”. The Rash (in vivo) was no more than 35%, the “Common side effect, Dermatologic” value (listed without frequency) was “Peeling of skin” and the “Serious side effect, Dermatologic” value (listed without frequency) was “Stevens-Johnson syndrome”. For the same molecule, the “Serious side effect, Gastrointestinal” value (listed without frequency) was “Gastrointestinal: Gastrointestinal hemorrhage, Gastrointestinal”, the “Serious side effect, Respiratory” value (listed without frequency) was “Respiratory tract hemorrhage” and the Abdominal pain (renal cell carcinoma) was “Gastrointestinal: Abdominal pain (renal cell carcinoma, 11%;”. The Acral erythema (renal cell carcinoma) was 30%, the Alopecia (renal cell carcinoma) was 27% and the Hemorrhage (renal cell carcinoma) was “Hematologic: Hemorrhage (renal cell carcinoma, 15.3%; thyroid”. For the same molecule, the Hypocalcemia (renal cell carcinoma) was 12%, the Lymphocytopenia (renal cell carcinoma) was “Hematologic: Lymphocytopenia (renal cell carcinoma, 23%;” and the Thrombocytopenia (renal cell carcinoma) was 12%. The Weight decreased (renal cell carcinoma) was 10%, the “ALT/SGPT level raised, Grade 3 or higher” value (thyroid carcinoma) was “carcinoma, 4%), AST/SGOT level raised, Grade 3 or 4 (thyroid” and the “ALT/SGPT level raised, all grades” value (thyroid carcinoma) was 59%), AST/SGOT level raised, All grades (thyroid carcinoma,. For the same molecule, the “AST/SGOT level raised, All grades” value (thyroid carcinoma) was 54%), the “AST/SGOT level raised, Grade 3 or 4” value (thyroid carcinoma) was 2% and the Abdominal pain (thyroid carcinoma) was 20%. The Acral erythema (thyroid carcinoma) was 69%, the Alopecia (thyroid carcinoma) was 67% and the Decrease in appetite (thyroid carcinoma) was 30%. For the same molecule, the Hemorrhage (thyroid carcinoma) was “carcinoma, 17.4%)”, the Hypocalcemia (thyroid carcinoma) was 36% and the “Raised TSH level” value (thyroid carcinoma) was 41%. The “Squamous cell carcinoma of skin” value (thyroid carcinoma) was 3% and the Weight decreased (thyroid carcinoma) was 49%.
For `NS(=O)(=O)c1cc(C(=O)O)c(NCc2ccco2)cc1Cl` [Furosemide (Lasix)], the “Hyperuricemia (incidence)” value (in vivo) is given as “Endocrine metabolic: Hyperuricemia (40%), Hypomagnesemia”.
In the case of `COc1ccc2c3c1O[C@H]1C(=O)CC[C@H]4[C@@H](C2)N(C)CC[C@]314.O=C(O)C(O)C(O)C(=O)O` [Hysingla ER], the Abdominal pain (in vivo) is given as “Gastrointestinal: Abdominal pain (1% to less than 5%),”, the Constipation (in vivo) is given as “Constipation (3% to 11%), Nausea (7% to 10%), Vomiting (3% to” and the Difficulty swallowing (in vivo) is given as “Gastrointestinal: Difficulty swallowing (less than 1%)”. The Dizziness (in vivo) was “Neurologic: Dizziness (2% to 3%), Headache (2% to 4%),”, the Fatigue (in vivo) was “Other: Fatigue (1% to 4%)” and the Headache (in vivo) was “Neurologic: Dizziness (2% to 3%), Headache (2% to 4%),”. For the same molecule, the Hypotension (in vivo) was “Cardiovascular: Hypotension (less than 1%), Orthostatic”, the Opioid withdrawal (in vivo) was “Opioid withdrawal (less than 1%)” and the Orthostatic hypotension (in vivo) was “hypotension (less than 1%), Prolonged QT interval, Syncope”. For the same molecule, the Peripheral edema (in vivo) was “Cardiovascular: Peripheral edema (1% to less than 5%%)”, the Pruritus (in vivo) was “Dermatologic: Pruritus (0% to less than 5%)” and the “Serious side effect, Cardiovascular” value (in vivo) was “hypotension (less than 1%), Prolonged QT interval, Syncope”. For the same molecule, the “Serious side effect, Neurologic” value (in vivo) was “Neurologic: Raised intracranial pressure, Seizure”, the “Serious side effect, Other” value (in vivo) was “Other: Drug withdrawal syndrome in neonate of dependent mother,” and the “Serious side effect, Respiratory” value (in vivo) was “Respiratory: Respiratory depression”. The Somnolence (in vivo) was “Somnolence (1% to 5%), Tremor (3%)”, the Spasm (in vivo) was “Musculoskeletal: Spasm (1% to less than 5%)” and the Tremor (in vivo) was “Somnolence (1% to 5%), Tremor (3%)”. For the same molecule, the Upper respiratory infection (in vivo) was “Respiratory: Upper respiratory infection (1% to 3%)”, the “Urinary tract infectious disease” value (in vivo) was “Renal: Urinary tract infectious disease (1% to 5%)” and the Xerostomia (in vivo) was 6%), Xerostomia (1% to less than 5%).
